Data published in US6716819B2, “Use of xylitol to reduce ionic strength and activate endogenous antimicrobials for prevention and treatment of infections” (University of Iowa Research Foundation, priority 2000, dated 2004).

Legend:
P. aeruginosa = experiment: Antibiotic effect in Lauria-Bertani (rich) media; assay type: cell-based; conditions: Lauria-Bertani media with 100 mM xylitol
Protocol: (§1) FIGS. 5(A-G). Effect of xylitol on growth of different airway pathogens. A, B and C. Growth of P. aeruginosa (A), S. aureus, (B), and coagulase-negative Staphylococcus (C) were measured as O. D. M9 media alone is indicated by open triangle. Xylitol (closed circle), or succinate, mannitol, or sucrose (open circles), were added to M9 media at 100 mM as indicated. D. Nasal swabs were collected and cultured for 3 days in Lauria-Bertani media (open circles), in minimal M9 media (open squares), or in M9 media supplemented with 100 mM xylitol (closed circles). E, F and G. P. aeruginosa (E), S. aureus (F), and coagulase-negative Staphylococcus (G) were cultured in Lauria-Bertani media alone (open triangles), Lauria-Bertani media with 100 mM xylitol (closed circles), and Lauria-Bertani media containing tobramycin or levofloxacin (open circles).
(§2) To test the effect of xylitol on growth of different airway pathogens in a carbon-starved media, P. aeruginosa, S. aureus, and coagulase-negative Staphylococcus were grown overnight in Lauria-Bertani medium. The bacteria were then centrifuged and resuspended in M9 media containing either 100 mM succinate, mannitol, or sucrose, respectively, and grown overnight at 37° C. The bacteria were centrifuged and resuspended in M9 media alone. M9 media containing 100 mM xylitol, or 100 mM of the indicated metabolizable sugar, as positive control. The optical density (O.D.) was measured after 0, 1, 2, and 4 hours at 600 nm on a Beckman DU640 Spectrophotometer (Schaumburg, Ill.). To test the antibiotic effect of xylitol, P. aeruginosa, S. aureus, and coagulase-negative Staphylococcus were grown overnight in Lauria-Bertani medium. The bacteria were then centrifuged and resuspended in Lauria-Bertani media with and without 100 mM xylitol. As a positive control, antibiotics with specific activity to each of the bacteria were added to the media (40 μg/ml tobramycin or 40 μg/ml levofloxacin).

[1] = test system: coagulase-negative Staphylococcus; experiment: Antibiotic effect in Lauria-Bertani (rich) media; assay type: cell-based; conditions: Lauria-Bertani media with 100 mM xylitol
Protocol: as §1, §2

S. aureus [2] = experiment: Antibiotic effect in Lauria-Bertani (rich) media; assay type: cell-based; conditions: Lauria-Bertani media with 100 mM xylitol
Protocol: as §1, §2

S. aureus [3] = experiment: Growth in carbon-starved M9 media (O.D.); assay type: cell-based; conditions: M9 media supplemented at 100 mM
Protocol: as §1
To test the effect of xylitol on growth of different airway pathogens in a carbon-starved media, P. aeruginosa, S. aureus, and coagulase-negative Staphylococcus were grown overnight in Lauria-Bertani medium. The bacteria were then centrifuged and resuspended in M9 media containing either 100 mM succinate, mannitol, or sucrose, respectively, and grown overnight at 37° C. […] The optical density (O.D.) was measured after 0, 1, 2, and 4 hours at 600 nm on a Beckman DU640 Spectrophotometer (Schaumburg, Ill.). […]

non-CF epithelia = assay type: in vitro ADME, human
Protocol: FIGS. 1(A-C). Permeability of xylitol added to the apical surface of non-CF epithelia. Xylitol (138 mM in 60 μl) was added to the apical surface of differentiated airway epithelia at time zero. Apical liquid was removed and volume determined at times indicated. Xylitol was measured by NMR. Data are mean±SEM; n=4. Some SEM bars are hidden by symbols.
Airway epithelial cells were isolated from tracheal and bronchial tissue. Cells were seeded onto collagen-coated, semi-permeable membranes (0.6 cm^2 Millicel-HA; Millipore, Bedford, Mass.) and grown at the air-liquid interface as previously described (Smith, J. J., S. M. Travis, E. P. Greenberg, and M. J. Welsh. 1996. Cystic fibrosis airway epithelia fail to kill bacteria because of abnormal airway surface fluid. Cell. 85:229-236; and erratum 287(222); Yamaya, M., W. E. Finbeiner, S. Y. Chun, and J. H. Widdicombe. 1992. Differentiated structure and function of cultures from human tracheal epithelium. Am. J. Physiol. 262:L713-L724; Zabner, J., B. G. Zeiher, E. Friedman, and M. J. Welsh. 1996. […] All epithelia were evaluated with scanning electron microscopy for the development of a ciliated apical surface.
Proton nuclear magnetic resonance spectroscopy was used to measure the xylitol concentration in the fluid on the apical surface. […] Concentrations were then determined by comparing the measured peak integral to a standard curve for xylitol. […]

[4] = cited from earlier work

For OC[C@@H](O)[C@H](O)[C@@H](O)CO [xylitol], the “inhibition of growth of P. aeruginosa” value (P. aeruginosa) was “did not inhibit the growth”, the “inhibition of growth of coagulase-negative Staphylococcus” value [1] was “did not inhibit the growth” and the “inhibition of growth of S. aureus” value (S. aureus [2]) was “did not inhibit the growth”. For the same compound, the “growth of S. aureus” value (S. aureus [3]) was “failed to support growth”, the xylitol permeability (non-CF epithelia) was “not high” and the “time after which approximately half the applied xylitol would diffuse to the basolateral surface” value (non-CF epithelia; human, 138 mM) was ~11 h. For the same compound, the “toxicity observed after intravenous delivery” value ([4]; 5-50% solution in water at 1-4.5 g/Kg intravenously, changes reversible) was “increases in serum uric acid and elevated liver enzymes” and the “adverse effect in children” value ([4]; delivered in large amounts) was “osmotic diarrhea”.
